Reference: ChEMBL document CHEMBL2016572, “Second-generation histone deacetylase 6 inhibitors enhance the immunosuppressive effects of Foxp3+ T-regulatory cells” (J Med Chem, 2012)
The source made the active and inactive calls. The calls are words filed in the database; no cut-off is given here.

Assays:
Histone deacetylase 1 = Histone deacetylase 1 (Homo sapiens, UniProt Q13547); experiment: Inhibition of human recombinant HDAC1 using RHKKAc peptide as substrate incubated for 5 to mins prior to substrate addition measured after 2 hrs
Histone deacetylase 1, sequence (Q13547 whole entry): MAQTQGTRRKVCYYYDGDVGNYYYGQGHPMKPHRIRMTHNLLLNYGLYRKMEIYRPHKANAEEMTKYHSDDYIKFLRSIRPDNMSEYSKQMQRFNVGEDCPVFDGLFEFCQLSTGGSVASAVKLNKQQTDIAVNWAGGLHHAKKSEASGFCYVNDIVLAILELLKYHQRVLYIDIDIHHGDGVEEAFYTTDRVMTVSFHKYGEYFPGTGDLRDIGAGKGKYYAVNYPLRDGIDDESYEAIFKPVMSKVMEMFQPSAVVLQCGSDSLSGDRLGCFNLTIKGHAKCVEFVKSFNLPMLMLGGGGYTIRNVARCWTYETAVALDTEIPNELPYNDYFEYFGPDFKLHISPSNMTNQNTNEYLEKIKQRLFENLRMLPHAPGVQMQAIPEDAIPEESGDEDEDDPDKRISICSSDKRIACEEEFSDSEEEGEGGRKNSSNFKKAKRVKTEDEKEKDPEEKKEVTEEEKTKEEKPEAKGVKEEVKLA

[1] = biological target: T1, Protein deacetylase HDAC6 (Homo sapiens, UniProt Q9UBN7); experiment: Inhibition of human recombinant HDAC6 using RHKKAc peptide as substrate incubated for 5 to mins prior to substrate addition measured after 2 hrs
T1 sequence (Q9UBN7 whole entry): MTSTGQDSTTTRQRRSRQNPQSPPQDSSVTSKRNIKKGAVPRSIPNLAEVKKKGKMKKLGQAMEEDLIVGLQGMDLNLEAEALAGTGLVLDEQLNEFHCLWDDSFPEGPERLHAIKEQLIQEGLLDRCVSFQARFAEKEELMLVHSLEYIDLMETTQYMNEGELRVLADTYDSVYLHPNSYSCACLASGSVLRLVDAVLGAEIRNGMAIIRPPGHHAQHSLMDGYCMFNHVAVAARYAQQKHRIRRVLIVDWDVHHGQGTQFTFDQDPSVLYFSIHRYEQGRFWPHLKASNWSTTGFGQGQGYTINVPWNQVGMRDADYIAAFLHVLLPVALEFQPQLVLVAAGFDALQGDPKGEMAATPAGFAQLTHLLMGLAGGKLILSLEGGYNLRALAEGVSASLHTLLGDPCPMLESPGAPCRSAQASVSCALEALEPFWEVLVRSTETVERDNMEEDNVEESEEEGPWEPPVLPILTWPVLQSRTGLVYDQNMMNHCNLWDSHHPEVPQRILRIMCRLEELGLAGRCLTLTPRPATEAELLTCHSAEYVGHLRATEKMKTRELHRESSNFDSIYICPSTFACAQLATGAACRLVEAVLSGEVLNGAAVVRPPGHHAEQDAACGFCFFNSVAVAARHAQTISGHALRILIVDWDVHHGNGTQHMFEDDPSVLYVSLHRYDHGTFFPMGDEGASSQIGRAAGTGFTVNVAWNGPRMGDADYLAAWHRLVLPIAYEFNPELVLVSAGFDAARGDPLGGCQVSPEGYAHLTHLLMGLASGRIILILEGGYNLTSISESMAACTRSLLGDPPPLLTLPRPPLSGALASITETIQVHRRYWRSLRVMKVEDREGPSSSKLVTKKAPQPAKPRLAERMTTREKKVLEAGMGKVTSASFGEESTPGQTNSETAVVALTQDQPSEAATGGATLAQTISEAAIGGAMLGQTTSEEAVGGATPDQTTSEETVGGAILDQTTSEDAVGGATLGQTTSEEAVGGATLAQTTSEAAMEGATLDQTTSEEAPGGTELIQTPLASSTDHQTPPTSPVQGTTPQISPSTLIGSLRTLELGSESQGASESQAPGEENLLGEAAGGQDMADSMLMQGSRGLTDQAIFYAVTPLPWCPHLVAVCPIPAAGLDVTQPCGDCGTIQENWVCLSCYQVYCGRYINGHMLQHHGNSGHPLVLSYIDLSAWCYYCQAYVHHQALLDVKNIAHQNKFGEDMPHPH

Homo sapiens = species: Homo sapiens; experiment: Selectivity ratio of IC50 for human recombinant HDAC1 to IC50 for human recombinant HDAC6
T-cell [2] = experiment: Immunosuppressive activity against C57BL/6 mouse CFSE-labelled effector T cells assessed as inhibition of T regulatory cells-mediated proliferation at 0.25 uM after 3 to 4 days by flow cytometry relative to control; format: functional, cell-based
[3] = Immunosuppressive activity against C57BL/6 mouse CFSE-labelled effector T cells assessed as Treg suppression of Teffector proliferation AUC at 0.25 uM after 3 to 4 days by flow cytometry relative to control; format: functional, T-cell
Mus musculus = experiment: Immunosuppressive activity against HDAC6 deficient CD4+CD25- CFSE-labelled effector T cells xenografted in RAG-/- mouse assessed as inhibition of FoxP3+,CD4+CD25+ T regulatory cells-mediated proliferation at 1 mg/kg, ip administered qd for 7 days measured on day 8 by flow cytometry; format: functional, organism-based; design: dose 1 mg/kg; settings: T-cell
T-cell [4] = experiment: Immunosuppressive activity against C57BL/6 mouse CFSE-labelled effector T cells assessed as inhibition of T regulatory cell-mediated cell division at Treg:Teff ratio of 1:1 at 0.5 uM after 3 to 4 days by flow cytometry (reference value: 42.2%); format: functional; settings: C57BL/6, T-cell
[5] = Immunosuppressive activity against C57BL/6 mouse CFSE-labelled effector T cells assessed as inhibition of T regulatory cell-mediated proliferation at Treg:Teff ratio of 1:8 at 0.5 uM after 3 to 4 days by flow cytometry (reference value: […]); format: functional; settings: C57BL/6, T-cell
[6] = Immunosuppressive activity against C57BL/6 mouse CFSE-labelled effector T cells assessed as inhibition of T regulatory cell-mediated proliferation at Treg:Teff ratio of 1:4 at 0.5 uM after 3 to 4 days by flow cytometry (reference value: 74.2%); format: functional; settings: C57BL/6, T-cell
[7] = Immunosuppressive activity against C57BL/6 mouse CFSE-labelled effector T cells assessed as inhibition of T regulatory cell-mediated proliferation at Treg:Teff ratio of 1:16 at 0.5 uM after 3 to 4 days by flow cytometry (reference value: 86.9%); format: functional; settings: C57BL/6, T-cell
T-cell [8] = experiment: Immunosuppressive activity against C57BL/6 mouse CFSE-labelled effector T cells assessed as inhibition of T regulatory cell-mediated cell division at Treg:Teff ratio of 1:2 at 0.5 uM after 3 to 4 days by flow cytometry (reference value: 64.8%); format: functional; settings: C57BL/6, T-cell
[9] = Immunosuppressive activity against C57BL/6 mouse CFSE-labelled effector T cells assessed as Treg suppression of Teffector proliferation AUC at 0.5 uM after 3 to 4 days by flow cytometry relative to control; format: functional, T-cell
[10] = Immunosuppressive activity against C57BL/6 mouse CFSE-labelled effector T cells assessed as Treg suppression of Teffector proliferation AUC at […] after 3 to 4 days by flow cytometry relative to control; format: functional, T-cell
[11] = Immunosuppressive activity against C57BL/6 mouse CFSE-labelled effector T cells assessed as inhibition of T regulatory cells-mediated proliferation at Treg:Teff ratio of 1:2 at 1 uM after 3 to 4 days by flow cytometry (reference value: 64.8%); format: functional; settings: C57BL/6, T-cell
[12] = Immunosuppressive activity against C57BL/6 mouse CFSE-labelled effector T cells assessed as inhibition of T regulatory cells-mediated proliferation at Treg:Teff ratio of 1:1 at 1 uM after 3 to 4 days by flow cytometry (reference value: 42.2%); format: functional; settings: C57BL/6, T-cell
[13] = Immunosuppressive activity against C57BL/6 mouse CFSE-labelled effector T cells assessed as inhibition of T regulatory cell-mediated proliferation at Treg:Teff ratio of 1:4 at 1 uM after 3 to 4 days by flow cytometry (reference value: 74.2%); format: functional; settings: C57BL/6, T-cell
[14] = Immunosuppressive activity against C57BL/6 mouse CFSE-labelled effector T cells assessed as inhibition of T regulatory cells-mediated proliferation at Treg:Teff ratio of 1:16 at 1 uM after 3 to 4 days by flow cytometry (reference value: 86.9%); format: functional; settings: C57BL/6, T-cell
[15] = Immunosuppressive activity against C57BL/6 mouse CFSE-labelled effector T cells assessed as Treg suppression of Teffector proliferation AUC at 1 uM after 3 to 4 days by flow cytometry relative to control; format: functional, T-cell
T-cell [16] = experiment: Immunosuppressive activity against C57BL/6 mouse CFSE-labelled effector T cells assessed as inhibition of T regulatory cells-mediated proliferation at 1 uM after 3 to 4 days by flow cytometry relative to control; format: functional, cell-based

| SMILES | IC50 (Histone deacetylase 1) | IC50 [1] | Ratio IC50 (Homo sapiens) | also measured |
| --- | --- | --- | --- | --- |
| Cc1ccc2c(c1)c1c(n2Cc2ccc(C(=O)NO)cc2)CCN(C)C1 | 2070 nM | 4.9 nM | 422 |  |
| CN1CCc2c(c3cc(Br)ccc3n2Cc2ccc(C(=O)NO)cc2)C1 | 427 nM | 0.704 nM | 606 | inhibition (T-cell [2]): Active; Ratio [3]: 1.87; inhibition (Mus musculus): Active |
| Cc1cccc2c3c(n(Cc4ccc(C(=O)NO)cc4)c12)CCN(C)C3 | 22100 nM | 34.7 nM | 636 |  |
| COc1ccc(CN2CCc3c(c4ccccc4n3Cc3ccc(C(=O)NO)cc3)C2)cc1 | 4640 nM | 3.05 nM | 1520 |  |
| CC(C)N1CCc2c(c3ccccc3n2Cc2ccc(C(=O)NO)cc2)C1 | 15700 nM | 8.96 nM | 1750 |  |
| O=C(NO)c1ccc(Cn2c3c(c4ccccc42)CNCC3)cc1 | 16400 nM | 6.56 nM | 2500 | Ratio [10]: 1.76 |
| CN1CCc2c(c3cc(C(C)(C)C)ccc3n2Cc2ccc(C(=O)NO)cc2)C1 | 14100 nM | 22.5 nM | 626 |  |
| CN1CCc2c(c3ccccc3n2Cc2ccc(C(=O)NO)cc2)C1 [TUBASTATIN A] |  |  |  | inhibition at 1 µM [11]: 44.4%; inhibition at 1 µM [12]: 37.8%; inhibition at 1 µM [13]: 58.7%; inhibition at 1 µM [14]: 75.4% |
| O=C(NO)c1ccc(Cn2c3c(c4ccccc42)CCNC3)cc1 | 9700 nM | 2.49 nM | 3900 |  |
| CN1CCc2c(n(Cc3ccc(C(=O)NO)cc3)c3ccccc23)C1 |  | 1.4 nM | 3700 | Ratio [15]: 1.63; inhibition (T-cell [16]): Active |

Continued by falling IC50 (Histone deacetylase 1), values first:

| IC50 (Histone deacetylase 1) | IC50 [1] | Ratio IC50 (Homo sapiens) | SMILES | also measured |
| --- | --- | --- | --- | --- |
| 10300 nM | 38.4 nM | 268 | Cc1cc(C)c2c3c(n(Cc4ccc(C(=O)NO)cc4)c2c1)CCN(C)C3 |  |
| 10300 nM | 1.44 nM | 7150 | O=C(NO)c1ccc(Cn2c3c(c4ccccc42)CN(Cc2ccccc2)CC3)cc1 |  |
| 10200 nM | 2.99 nM | 3410 | CCN1CCc2c(c3ccccc3n2Cc2ccc(C(=O)NO)cc2)C1 |  |
| 8620 nM | 2.25 nM | 3830 | CC(C)(C)OC(=O)N1CCc2c(c3ccccc3n2Cc2ccc(C(=O)NO)cc2)C1 |  |
| 7450 nM | 4.06 nM | 1830 | NC(=O)CCCN1CCc2c(c3ccccc3n2Cc2ccc(C(=O)NO)cc2)C1 |  |
| 5820 nM | 0.972 nM | 5990 | C=CCN1CCc2c(c3ccccc3n2Cc2ccc(C(=O)NO)cc2)C1 | Ratio [9]: 1.65 |
| 5190 nM | 2.96 nM | 1750 | COc1cccc(CN2CCc3c(c4ccccc4n3Cc3ccc(C(=O)NO)cc3)C2)c1 | Ratio [9]: 1.9 |
| 4320 nM | 0.872 nM | 4950 | O=C(NO)c1ccc(Cn2c3c(c4ccccc42)CCN(Cc2ccccc2)C3)cc1 |  |
| 4050 nM | 11.5 nM | 352 | Cc1ccc2c3c(n(Cc4ccc(C(=O)NO)cc4)c2c1)CCN(C)C3 |  |
| 3980 nM | 0.799 nM | 4980 | NC(=O)CN1CCc2c(c3ccccc3n2Cc2ccc(C(=O)NO)cc2)C1 | Ratio [10]: 1.69 |
| 2740 nM | 0.582 nM | 4710 | O=C(NO)c1ccc(Cn2c3c(c4ccccc42)CN(Cc2ccncc2)CC3)cc1 | inhibition at 0.5 µM (T-cell [4]): 37.8%; inhibition at 0.5 µM [5]: 69.7%; inhibition at 0.5 µM [6]: 62.3%; inhibition at 0.5 µM [7]: 72.8%; inhibition at 0.5 µM (T-cell [8]): 51.6%; inhibition (Mus musculus): Active; Ratio [9]: 2.13 |
| 1880 nM | 3.06 nM | 614 | COc1ccc2c(c1)c1c(n2Cc2ccc(C(=O)NO)cc2)CCN(C)C1 |  |
| 1610 nM | 0.459 nM | 3510 | NC(=O)CCN1CCc2c(c3ccccc3n2Cc2ccc(C(=O)NO)cc2)C1 |  |
| 1020 nM | 1.02 nM | 1000 | CN1CCc2c(c3cc(Cl)ccc3n2Cc2ccc(C(=O)NO)cc2)C1 |  |
